Data as given in ChEMBL document CHEMBL1201861, “Genomics of Drug Sensitity in Cancer screening data, Wellcome Trust Sanger Institute”.
pIC50: −log10 of the molar value.

Assays:
Assay in all cases: cells
[1] = system: CTB-1; format: functional, cell-based; settings: Homo sapiens
Description: SANGER: Inhibition of human CTB-1 cell growth in a cell viability assay.

[2] = system: D-263MG; format: functional, cell-based, Homo sapiens; settings: Homo sapiens, D-263MG
Description: SANGER: Inhibition of human D-263MG cell growth in a cell viability assay.

[3] = system: GAK; format: functional, cell-based, Homo sapiens; settings: Homo sapiens, GAK;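 also: cell growth inhibition read out by a cell viability assay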
Description: SANGER: Inhibition of human GAK cell growth in a cell viability assay.

[4] = system: GI-1; format: functional, cell-based, Homo sapiens; settings: Homo sapiens, GI-1;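 also: growth inhibition of human GI-1 cells, measured with a cell viability readout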
Description: SANGER: Inhibition of human GI-1 cell growth in a cell viability assay.

[5] = system: HCC1187; format: functional, cell-based, Homo sapiens; settings: Homo sapiens, HCC1187;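 also: growth inhibition of HCC1187 cells, read out with a cell viability assay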
Description: SANGER: Inhibition of human HCC1187 cell growth in a cell viability assay.

[6] = system: HL-60; format: functional, cell-based; settings: Homo sapiens;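 also: growth inhibition of human HL-60 cells, read out with a cell viability assay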
Description: SANGER: Inhibition of human HL-60 cell growth in a cell viability assay.

[7] = system: HT-144; format: functional, cell-based, Homo sapiens; settings: Homo sapiens, HT-144
Description: SANGER: Inhibition of human HT-144 cell growth in a cell viability assay.

[8] = system: HuTu80; format: functional, cell-based, Homo sapiens, HUTU-80; settings: Homo sapiens, HuTu80;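 also: growth inhibition of HuTu80 human cells, determined with a cell viability readout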
Description: SANGER: Inhibition of human HUTU-80 cell growth in a cell viability assay.

[9] = system: K5; format: functional, cell-based, Homo sapiens; settings: Homo sapiens, K5
Description: SANGER: Inhibition of human K5 cell growth in a cell viability assay.

[10] = system: KG-1; format: functional, cell-based; settings: Homo sapiens;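 also: growth inhibition of KG-1 cells, read out by a cell viability assay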
Description: SANGER: Inhibition of human KG-1 cell growth in a cell viability assay.

[11] = system: KU812 cell line; format: functional, cell-based; settings: Homo sapiens;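 also: growth inhibition of KU812 cells, read out with a cell viability assay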
Description: SANGER: Inhibition of human KU812 cell growth in a cell viability assay.

[12] = system: MHH-PREB-1; format: functional, cell-based; settings: Homo sapiens;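 also: cell viability assay measuring inhibition of proliferation of human MHH-PREB-1 cells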
Description: SANGER: Inhibition of human MHH-PREB-1 cell growth in a cell viability assay.

[13] = system: MPP-89; format: functional, cell-based, Homo sapiens; settings: Homo sapiens, MPP-89;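 also: growth inhibition of human MPP-89 cells, read out with a cell viability assay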
Description: SANGER: Inhibition of human MPP-89 cell growth in a cell viability assay.

[14] = system: NCI-H23; format: functional, cell-based, Homo sapiens; settings: Homo sapiens, NCI-H23;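 also: cell viability assay measuring growth inhibition of NCI-H23 cells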
Description: SANGER: Inhibition of human NCI-H23 cell growth in a cell viability assay.

[15] = system: NCI-H720; format: functional, cell-based; settings: Homo sapiens;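 also: growth inhibition of human NCI-H720 cells determined by a cell viability assay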
Description: SANGER: Inhibition of human NCI-H720 cell growth in a cell viability assay.

[16] = system: NCI-H747; format: functional, cell-based; settings: Homo sapiens;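 also: growth inhibition of human NCI-H747 cells, read out by a cell viability assay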
Description: SANGER: Inhibition of human NCI-H747 cell growth in a cell viability assay.

[17] = system: ONS-76; format: functional, cell-based, Homo sapiens; settings: Homo sapiens, ONS-76;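 also: growth inhibition of human ONS-76 cells, read out with a cell viability assay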
Description: SANGER: Inhibition of human ONS-76 cell growth in a cell viability assay.

[18] = system: RPMI-8866; format: functional, cell-based; settings: Homo sapiens
Description: SANGER: Inhibition of human RPMI-8866 cell growth in a cell viability assay.

[19] = system: 8-MG-BA; format: functional, cell-based, Homo sapiens; settings: Homo sapiens, 8-MG-BA;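 also: growth inhibition of 8-MG-BA cells, read out with a cell viability assay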
Description: SANGER: Inhibition of human 8-MG-BA cell growth in a cell viability assay.

[20] = system: BB30-HNC; format: functional, cell-based, Homo sapiens; settings: Homo sapiens, BB30-HNC;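 also: growth inhibition of the cultured cell line, read out by a cell viability assay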
Description: SANGER: Inhibition of human BB30-HNC cell growth in a cell viability assay.

[21] = system: TE-10; format: functional, cell-based, Homo sapiens; settings: Homo sapiens, TE-10;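 also: growth inhibition of TE-10 cells, measured by a cell viability assay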
Description: SANGER: Inhibition of human TE-10 cell growth in a cell viability assay.

[22] = system: TK-10; format: functional, cell-based, Homo sapiens; settings: Homo sapiens, TK-10;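 also: growth inhibition of TK-10 cells, read out in a cell viability assay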
Description: SANGER: Inhibition of human TK10 cell growth in a cell viability assay.

[23] = system: HCE-4; format: functional, cell-based, Homo sapiens; settings: Homo sapiens, HCE-4;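 also: cell viability assay measuring inhibition of growth in the human HCE-4 cell line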
Description: SANGER: Inhibition of human HCE-4 cell growth in a cell viability assay.

[24] = system: IA-LM; format: functional, cell-based, Homo sapiens; settings: Homo sapiens, IA-LM;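 also: cell viability assay measuring growth inhibition of human IA-LM cells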
Description: SANGER: Inhibition of human IA-LM cell growth in a cell viability assay.

Structure (SMILES)	pIC50 [1]	pIC50 [2]	pIC50 [4]	pIC50 [5]	pIC50 [6]	pIC50 [7]	pIC50 [8]	pIC50 [9]	pIC50 [10]	pIC50 [11]	pIC50 [12]	pIC50 [13]	pIC50 [14]	pIC50 [15]	pIC50 [16]	pIC50 [17]	pIC50 [18]	pIC50 [19]	pIC50 [21]	pIC50 [22]	also measured
CCc1nc(N)nc(N)c1-c1ccc(Cl)cc1 [PYRIMETHAMINE]	< 4.70	< 4.70	< 4.70	< 4.70	< 4.70	5.17	4.92	< 4.70	< 4.70	4.81	< 4.70	< 4.70	5.18	< 4.70	< 4.70	5.01	5.01	< 4.70	< 4.70	5.13	pIC50 [3]: < 4.70; pIC50 [20]: < 4.70
O=C(/C=C/c1ccccc1)NC(NC(=S)Nc1cccc2cccnc12)C(Cl)(Cl)Cl (stereo unspecified) [SALUBRINAL]	< 4.80	< 4.80	< 4.80	< 4.80	4.88	< 4.80	4.93	< 4.80	< 4.80	< 4.80	5.17	< 4.80	< 4.80	5.12	< 4.80	< 4.80	< 4.80	4.96	< 4.80	< 4.80	pIC50 [3]: < 4.80; pIC50 [20]: < 4.80
Cc1cc(Nc2cc(N3CCN(C)CC3)nc(Sc3ccc(NC(=O)C4CC4)cc3)n2)n[nH]1 [TOZASERTIB]	[…]	[…]	[…]	6.00	5.97	6.20	7.28	[…]	[…]	[…]	[…]	[…]	[…]	[…]	[…]	6.18	[…]	[…]	5.95	[…]	pIC50 [3]: […]; pIC50 [23]: 6.06; pIC50 [24]: […]; pIC50 [20]: 6.65
CN1CCN(CCOc2cc(OC3CCOCC3)c3c(Nc4c(Cl)ccc5c4OCO5)ncnc3c2)CC1 [SARACATINIB]	[…]	[…]	[…]	[…]	[…]	[…]	[…]	[…]	[…]	[…]	[…]	[…]	[…]	[…]	[…]	[…]	[…]	[…]	5.78	6.04	pIC50 [3]: […]; pIC50 [23]: […]; pIC50 [24]: […]; pIC50 [20]: 6.06
C=C1C(=O)O[C@@H]2C3O[C@]3(C)CC/C=C(\C)CC[C@@H]12 (stereo partly specified)	5.41	< 5.30	< 5.30	< 5.30	< 5.30	< 5.30	< 5.30	< 5.30	< 5.30	< 5.30	< 5.30	< 5.30	< 5.30	< 5.30	< 5.30	< 5.30	< 5.30	< 5.30	< 5.30	< 5.30	pIC50 [3]: < 5.30; pIC50 [20]: < 5.30
CO[C@H]1C[C@@H]2CC[C@@H](C)[C@@](O)(O2)C(=O)C(=O)N2CCCC[C@H]2C(=O)O[C@H]([C@H](C)C[C@@H]2CC[C@@H](O)[C@H](OC)C2)CC(=O)[C@H](C)/C=C(\C)[C@@H](O)[C@@H](OC)C(=O)[C@H](C)C[C@H](C)/C=C/C=C/C=C/1C [SIROLIMUS]	< 7.00	< 7.00	7.15	< 7.00	< 7.00	< 7.00	8.35	< 7.00	< 7.00	8.70	7.49	< 7.00	< 7.00	7.59	< 7.00	< 7.00	< 7.00	< 7.00	8.48	< 7.00	pIC50 [3]: < 7.00; pIC50 [23]: < 7.00; pIC50 [24]: 7.17; pIC50 [20]: < 7.00
CCC(=O)N1CCN(c2ccc(-n3c(=O)ccc4cnc5ccc(-c6cnc7ccccc7c6)cc5c43)cc2C(F)(F)F)CC1 [TORIN1]	6.65	6.18	7.61	6.33	6.83	7.84	8.03	7.19	< 5.92	7.89	7.74	6.74	7.07	6.26	7.63	6.88	< 5.92	7.33	7.48	7.40	pIC50 [3]: 7.50; pIC50 [23]: 7.41; pIC50 [24]: 7.54; pIC50 [20]: 7.24
CNC(=O)c1cc(Oc2ccc(NC(=O)Nc3ccc(Cl)c(C(F)(F)F)c3)cc2)ccn1 [SORAFENIB]	[…]	[…]	[…]	[…]	5.51	[…]	[…]	[…]	5.83	[…]	[…]	[…]	[…]	[…]	[…]	[…]	[…]	[…]	[…]	[…]	pIC50 [3]: […]
CS(=O)(=O)CCNCc1ccc(-c2ccc3ncnc(Nc4ccc(OCc5cccc(F)c5)c(Cl)c4)c3c2)o1 [LAPATINIB]	< 5.70	< 5.70	< 5.70	< 5.70	< 5.70	< 5.70	< 5.70	< 5.70	< 5.70	< 5.70	< 5.70	< 5.70	< 5.70	< 5.70	< 5.70	< 5.70	< 5.70	< 5.70	< 5.70	< 5.70	pIC50 [20]: 6.61
CC1=C2C[C@H]3[C@@H](CC=C4C[C@@H](O)CC[C@@]43C)[C@@H]2CC[C@]12O[C@@H]1C[C@H](C)CN[C@H]1[C@H]2C [CYCLOPAMINE]	< 4.80	< 4.80	< 4.80	< 4.80	< 4.80	< 4.80	< 4.80	< 4.80	< 4.80	< 4.80	< 4.80	< 4.80	< 4.80	< 4.80	< 4.80	< 4.80	< 4.80	4.88	< 4.80	< 4.80	pIC50 [3]: < 4.80; pIC50 [20]: < 4.80
